# Laboratory results reported in article PMC3626250, “Effects of Borneol on Pharmacokinetics and Tissue Distribution of Notoginsenoside R1 and Ginsenosides Rg1 and Re in Panax notoginseng in Rabbits” (Journal of Analytical Methods in Chemistry, 2013).
# Like-named read-outs stand apart in the source and are kept apart here.
# Experiment: Transport studies across Caco-2 monolayers (P app, efflux ratio)
# Format: in vitro ADME
# Details: human; for Papp A→B at 120 min, 500 μM / Papp B→A at 120 min, 500 μM: Caco-2 Model, 500 μM compound; for Papp A→B at 120 min, 500 μM: read-out: P app (apical to basolateral); for Papp B→A at 120 min, 500 μM: read-out: P app (basolateral to apical)
# Protocol: Medium was replaced every 2-3 days. […] The vinblastine-selected Caco-2 cells were cultivated in the presence of 10 nM vinblastine to induce P-glycoprotein (P-gp) expression. […] Prior to the transport study, cytotoxicity of NGR1, GRg1, GRe, and Borneol toward Caco-2 cells was determined using MTT assays.
# In transport studies, vinblastine-selected Caco-2 cells were seeded on polycarbonate filter of transwells for 18–21 days before starting transport study, and the monolayers with the transepithelial electrical resistance (TEER) values greater than 300 Ωcm^2 were used. Caco-2 monolayers were rinsed twice with Hanks' balanced salt solution (HBSS) and preincubated in HBSS at 37°C for 30 min before starting experiments. To start the experiments, 500 μM of NGR1, GRg1, and GRe in final concentrations were added to the donor side with or without 200 μM Borneol and then incubated at 37°C. […] After each sampling, 0.1 mL of HBSS was added to the receiver chamber to maintain a constant volume. All the experiments were performed five times in duplicate. The collected samples were stored at −20°C until HPLC analysis. During the above transport studies, the TEER values were also monitored before and at the end of each experiment. Apparent permeability coefficients (P app) were then calculated according to the following equation: (1) Papp=(dC/dt×V)/(A×C0), where dC/dt is the rate of the test compound appearing in the receiver chamber, V is the volume of the solution in the receiver chamber, A is the cell monolayer surface area, and C 0 is the initial concentration of the test compound added in the donor chamber.
# The efflux ratio (Er) was calculated using the following equation: (2) Er=Papp(basolateral-apical)/Papp(apical-basolateral).
# [1] = Caco-2, Caco-2 monolayers, read-out: efflux ratios (Er)
# [2] = Caco-2, efflux ratio P app(basolateral-apical)/P app(apical-basolateral), with or without 200 μM Borneol (see label), read-out: E r
# [3] = with or without 200 μM Borneol (see label)
"efflux ratio at 120 min, 500 μM [1]","efflux ratio at 120 min, 500 μM [2]","Papp A→B at 120 min, 500 μM [3]","Papp B→A at 120 min, 500 μM [3]",Structure (SMILES)
1 to 1.1,1.05,0.546 ± 0.04 ×10⁻⁶ cm/s,0.573 ± 0.037 ×10⁻⁶ cm/s,"CC(C)=CCC[C@](C)(O[C@@H]1O[C@H](CO)[C@@H](O)[C@H](O)[C@H]1O)[C@H]1CC[C@]2(C)[C@@H]1[C@H](O)C[C@@H]1[C@@]3(C)CC[C@H](O)C(C)(C)[C@@H]3[C@@H](O[C@@H]3O[C@H](CO)[C@@H](O)[C@H](O)[C@H]3O[C@@H]3O[C@@H](C)[C@H](O)[C@@H](O)[C@H]3O)C[C@]12C [GRe, ginsenoside Re]"
1 to 1.1,1.05,0.348 ± 0.042 ×10⁻⁶ cm/s,0.364 ± 0.029 ×10⁻⁶ cm/s,"CC(C)=CCC[C@](C)(O[C@@H]1O[C@H](CO)[C@@H](O)[C@H](O)[C@H]1O)[C@H]1CC[C@]2(C)[C@@H]1[C@H](O)C[C@@H]1[C@@]3(C)CC[C@H](O)C(C)(C)[C@@H]3[C@@H](O[C@@H]3O[C@H](CO)[C@@H](O)[C@H](O)[C@H]3O)C[C@]12C [GRg1, ginsenoside Rg1]"
